What all share (assay type): binding
Test [1] concerns the target N-His-Tb-BIR3(241-356, XIAP) (Homo sapiens, UniProt P98170). The experiment in a line: XIAP-BIR3 SMAC Peptide Fluorescence Polarization Assay (FPA). (In fluorescence polarisation assays a small probe gives low polarisation when free and higher when bound to something large.)
Test [2] deals with T1, XIAP His-BIR2 (124-240/C202A/C213G) (Homo sapiens, UniProt P98170, C202A/C213G).
T1 construct: additions of His-BIR2 (124-240/C202A/C213G), Biotinylated SMAC peptide
Kind of test: XIAP-BIR2/SMAC Peptide AlphaScreen Assay. The protocol:
A. XIAP-BIR2/SMAC Peptide AlphaScreen Assay Assays were performed in white, flat-bottom, 384-well ProxiPlates (Perkin Elmer). […] The reaction was incubated at room temperature for 60 minutes. After 60 minutes, 2.5 μL of Alphascreen detection reagent (Perkin Elmer) was added to the reaction mixture and incubated at room temperature in the dark for 120 minutes. The Alphascreen signal generated by the reaction was detected on the Envision Plate Reader. […] Compounds were dissolved at 10 mM in dimethylsulfoxide (DMSO) and evaluated at eleven concentrations. IC50 values were derived by non-linear regression analysis.

Test [3] addresses T2, His-BIR3 (241-356, XIAP) (Homo sapiens, UniProt P98170).
T2 construct: additions of His-BIR3 (241-356, XIAP), fluorescein labeled SMAC peptide
The experiment in a line: XIAP-BIR3/SMAC Homogeneous Time Resolved Fluorescence (HTRF) Assay. As to conditions: Table 4. (In general: TR-FRET usually uses a lanthanide donor and a delayed reading to cut background.)

In test [4] the target is T3, His-BIR2-3 (125-356, C202A/C213G, XIAP) (Homo sapiens, UniProt P98170, C202A/C213G).
T3 construct: additions of His-BIR2-3 (125-356, C202A/C213G, XIAP), fluorescein labeled dimeric SMAC peptide
Kind of test: XIAP-BIR2-3 Dimeric SMAC Peptide Homogeneous Time Resolved Fluorescence (HTRF) Assay. Particulars: XIAP BIR2-3, HTRF, Table 4.

The mark [5] stands for this setting: XIAP BIR2, AlphaScreen, Table 2, read-out: BIR2 IC50.
[6] abbreviates: XIAP BIR2, Alphascreen, Table 4, read-out: BIR2 Alpha Screen IC50.

Where two headings read alike, the source gives them in different places. Some results are limits rather than exact numbers.

The term IC50 denotes the concentration needed to halve the response being measured.

Chain of N-His-Tb-BIR3(241-356, XIAP) (P98170 241-356): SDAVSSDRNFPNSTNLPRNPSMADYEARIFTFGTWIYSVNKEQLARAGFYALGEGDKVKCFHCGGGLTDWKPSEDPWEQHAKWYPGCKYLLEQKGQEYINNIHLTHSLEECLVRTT
T1 sequence (P98170 124-240 C202A/C213G): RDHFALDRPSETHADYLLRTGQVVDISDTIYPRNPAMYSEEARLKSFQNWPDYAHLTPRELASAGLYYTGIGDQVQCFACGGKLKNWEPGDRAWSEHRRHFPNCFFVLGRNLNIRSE
T3 sequence (P98170 125-356 C202A/C213G): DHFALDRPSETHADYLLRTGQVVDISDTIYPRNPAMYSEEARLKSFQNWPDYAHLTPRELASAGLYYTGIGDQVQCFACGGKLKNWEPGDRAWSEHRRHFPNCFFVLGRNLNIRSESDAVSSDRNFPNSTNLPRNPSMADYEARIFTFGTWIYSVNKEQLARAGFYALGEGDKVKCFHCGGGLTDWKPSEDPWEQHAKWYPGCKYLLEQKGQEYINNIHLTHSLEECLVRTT
T2 sequence (P98170 241-356): as the sequence (P98170 241-356) above

Turning to `CN[C@@H](C)C(=O)N[C@H](C(=O)N1C[C@@H]2C[C@H]1C(=O)N[C@@H](Cc1ccc(OC)c(OC)c1)C(=O)N[C@H](C(=O)O)Cc1ccc(cc1)OCc1cn(nn1)[C@H]1C[C@@H](C(=O)N[C@@H](Cc3ccc(OC)c(OC)c3)C(=O)N[C@H](C(=O)O)Cc3ccc(cc3)OCc3cn2nn3)N(C(=O)[C@@H](NC(=O)[C@H](C)NC)C(C)(C)C)C1)C(C)(C)C` [Compound 131], the figures for the IC50 in test [1] and in test [2] (setting [5]) were more than 0.1 µM and 2 to 12 µM, respectively.
With `CN[C@@H](C)C(=O)N[C@H](C(=O)N1CC2C[C@H]1C(=O)N[C@@H](Cc1ccc3ccccc3c1)C(=O)N[C@H](C(=O)O)Cc1cn(nn1)[C@H]1C[C@@H](C(=O)N[C@@H](Cc3ccc4ccccc4c3)C(=O)N[C@H](C(=O)O)Cc3cn2nn3)N(C(=O)[C@@H](NC(=O)[C@H](C)NC)C(C)C)C1)C(C)C` [Compound 140], the figures for the IC50 in test [1] and in test [2] (setting [5]) were less than 0.05 µM and less than 2 µM, respectively.
On to `CN[C@@H](C)C(=O)N[C@H](C(=O)N1C[C@@H]2C[C@H]1C(=O)N[C@@H](Cc1cccc(C(F)(F)F)c1)C(=O)N[C@H](C(=O)O)Cc1ccc(cc1)OCc1cn(nn1)[C@H]1C[C@@H](C(=O)N[C@@H](Cc3cccc(C(F)(F)F)c3)C(=O)N[C@H](C(=O)O)Cc3ccc(cc3)OCc3cn2nn3)N(C(=O)[C@@H](NC(=O)[C@H](C)NC)C(C)(C)C)C1)C(C)(C)C` [Compound 129], for which the results for the IC50 in test [1] and in test [2] (setting [5]) were less than 0.05 µM and less than 2 µM, respectively.
The matching figures for `CN[C@@H](C)C(=O)N[C@@H](CC1CCCCC1)C(=O)N1C[C@@H]2C[C@H]1C(=O)N[C@@H](Cc1ccccc1)C(=O)N[C@H](C(=O)O)Cc1ccc(cc1)OCc1cn(nn1)[C@H]1C[C@@H](C(=O)N[C@@H](Cc3ccccc3)C(=O)N[C@H](C(=O)O)Cc3ccc(cc3)OCc3cn2nn3)N(C(=O)[C@H](CC2CCCCC2)NC(=O)[C@H](C)NC)C1` [Compound 109]: less than 0.05 µM and less than 2 µM.
Regarding `CN[C@@H](C)C(=O)N[C@H](C(=O)N1C[C@@H]2C[C@H]1C(=O)N[C@@H](Cc1ccc3ccccc3c1)C(=O)N[C@H](C(=O)NS(=O)(=O)C1CC1)Cc1ccc(cc1)OCc1cn(nn1)[C@H]1C[C@@H](C(=O)N[C@@H](Cc3ccc4ccccc4c3)C(=O)N[C@H](C(=O)NS(=O)(=O)C3CC3)Cc3ccc(cc3)OCc3cn2nn3)N(C(=O)[C@@H](NC(=O)[C@H](C)NC)C(C)(C)C)C1)C(C)(C)C` [Compound 148], the IC50 in test [3] is less than 0.01 µM; in test [4], not above 0.001 µM; in test [1], less than 0.05 µM; in test [2] (setting [6]) it was less than 2 µM.
Consider `CC[C@H](NC(=O)[C@H](C)NC)C(=O)N1C[C@@H]2C[C@H]1C(=O)N[C@@H](Cc1ccccc1)C(=O)N[C@H](C(=O)O)Cc1ccc(cc1)OCc1cn(nn1)[C@H]1C[C@@H](C(=O)N[C@@H](Cc3ccccc3)C(=O)N[C@H](C(=O)O)Cc3ccc(cc3)OCc3cn2nn3)N(C(=O)[C@H](CC)NC(=O)[C@H](C)NC)C1` [Compound 117], for which the IC50 in test [1] is less than 0.05 µM; in test [2] (setting [5]), less than 2 µM.
For `CN[C@@H](C)C(=O)N[C@H](C(=O)N1C[C@@H]2C[C@H]1C(=O)N[C@@H](COCc1ccccc1)C(=O)N[C@H](C(=O)O)Cc1ccc(cc1)OCc1cn(nn1)[C@H]1C[C@@H](C(=O)N[C@@H](COCc3ccccc3)C(=O)N[C@H](C(=O)O)Cc3ccc(cc3)OCc3cn2nn3)N(C(=O)[C@@H](NC(=O)[C@H](C)NC)C(C)C)C1)C(C)C` [Compound 123] the same measures were more than 0.1 µM and 2 to 12 µM.
For `CN[C@@H](C)C(=O)N[C@H](C(=O)N1C[C@@H]2C[C@H]1C(=O)N[C@@H](Cc1cccc(C(F)(F)F)c1)C(=O)N[C@H](C(=O)O)Cc1ccc(cc1)COc1cn(nn1)[C@H]1C[C@@H](C(=O)N[C@@H](Cc3cccc(C(F)(F)F)c3)C(=O)N[C@H](C(=O)O)Cc3ccc(cc3)OCc3cn2nn3)N(C(=O)[C@@H](NC(=O)[C@H](C)NC)C(C)C)C1)C(C)C` [Compound 112] the same measures were less than 0.05 µM and 2 to 12 µM.
For `CN[C@@H](C)C(=O)N[C@H](C(=O)N1C[C@@H]2C[C@H]1C(=O)N[C@@H](Cc1ccccc1)C(=O)N[C@@H](C(=O)O)Cc1ccc(cc1)NC(=O)CCc1cn(nn1)[C@H]1C[C@@H](C(=O)N[C@@H](Cc3ccccc3)C(=O)N[C@@H](C(=O)O)Cc3ccc(cc3)NC(=O)CCc3cn2nn3)N(C(=O)[C@@H](NC(=O)[C@H](C)NC)C(C)C)C1)C(C)C` [Compound 102] the same measures were 0.05 to 0.1 µM and less than 2 µM.
Turning to `CN[C@@H](C)C(=O)N[C@H](C(=O)N1C[C@@H]2C[C@H]1C(=O)N[C@@H](Cc1ccccc1)C(=O)N[C@H](C(=O)O)Cc1ccc(cc1)OCc1cn(nn1)[C@H]1C[C@@H](C(=O)N[C@@H](Cc3ccccc3)C(=O)N[C@H](C(=O)O)Cc3ccc(cc3)OCc3cn2nn3)N(C(=O)[C@@H](NC(=O)[C@H](C)NC)C(C)C)C1)C(C)C` [Compound 101], the values for the IC50 in test [1] and in test [2] (setting [5]) were 0.05 to 0.1 µM and less than 2 µM, respectively.
For `CN[C@@H](C)C(=O)N[C@H](C(=O)N1C[C@@H]2C[C@H]1C(=O)N[C@@H](CCc1ccccc1)C(=O)N[C@H](C(=O)O)Cc1ccc(cc1)OCc1cn(nn1)[C@H]1C[C@@H](C(=O)N[C@@H](CCc3ccccc3)C(=O)N[C@H](C(=O)O)Cc3ccc(cc3)OCc3cn2nn3)N(C(=O)[C@@H](NC(=O)[C@H](C)NC)C(C)C)C1)C(C)C` [Compound 107] the same measures were more than 0.1 µM and less than 2 µM.
With `CN[C@@H](C)C(=O)N[C@H](C(=O)N1C[C@@H]2C[C@H]1C(=O)N[C@@H](Cc1ccc3ccccc3c1)C(=O)N[C@H](C(=O)O)Cc1ccc(cc1)OCc1cn(nn1)[C@H]1C[C@@H](C(=O)N[C@@H](Cc3ccc4ccccc4c3)C(=O)N[C@H](C(=O)NS(C)(=O)=O)Cc3ccc(cc3)OCc3cn2nn3)N(C(=O)[C@@H](NC(=O)[C@H](C)NC)C(C)(C)C)C1)C(C)(C)C` [Compound 1002], the figures for the concentration for half-maximal inhibition (IC50) in test [1] and in test [2] (setting [6]) were less than 0.05 µM and less than 2 µM, respectively.
For `CN[C@@H](C)C(=O)N[C@H](C(=O)N1C[C@@H]2C[C@H]1C(=O)N[C@@H](CC1CCCCC1)C(=O)N[C@H](C(=O)O)Cc1ccc(cc1)OCc1cn(nn1)[C@H]1C[C@@H](C(=O)N[C@@H](CC3CCCCC3)C(=O)N[C@H](C(=O)O)Cc3ccc(cc3)OCc3cn2nn3)N(C(=O)[C@@H](NC(=O)[C@H](C)NC)C(C)C)C1)C(C)C` [Compound 122], the IC50 in test [1] is more than 0.1 µM; in test [2] (setting [5]) it was 2 to 12 µM.
For `CN[C@@H](C)C(=O)N[C@@H](CC(C)C)C(=O)N1C[C@@H]2C[C@H]1C(=O)N[C@@H](Cc1ccccc1)C(=O)N[C@H](C(=O)O)Cc1ccc(cc1)OCc1cn(nn1)[C@H]1C[C@@H](C(=O)N[C@@H](Cc3ccccc3)C(=O)N[C@H](C(=O)O)Cc3ccc(cc3)OCc3cn2nn3)N(C(=O)[C@H](CC(C)C)NC(=O)[C@H](C)NC)C1` [Compound 119] the same measures were less than 0.05 µM and less than 2 µM.
The matching figures for `CN[C@@H](C)C(=O)N[C@H](C(=O)N1C[C@@H]2C[C@H]1C(=O)N[C@@H](Cc1ccccc1)C(=O)N[C@H](C(=O)O)Cc1ccc(cc1)OCc1cn(nn1)[C@H]1C[C@@H](C(=O)N[C@@H](Cc3ccccc3)C(=O)N[C@H](C(=O)O)Cc3ccc(cc3)OCc3cn2nn3)N(C(=O)[C@@H](NC(=O)[C@H](C)NC)C2CCCCC2)C1)C1CCCCC1` [Compound 120]: less than 0.05 µM and less than 2 µM.
As for `CN[C@@H](C)C(=O)N[C@H](C(=O)N1C[C@@H]2C[C@H]1C(=O)N[C@@H](Cc1ccc3ccccc3c1)C(=O)N[C@H](C(=O)NS(=O)(=O)C(F)(F)F)Cc1ccc(cc1)OCc1cn(nn1)[C@H]1C[C@@H](C(=O)N[C@@H](Cc3ccc4ccccc4c3)C(=O)N[C@H](C(=O)NS(=O)(=O)C(F)(F)F)Cc3ccc(cc3)OCc3cn2nn3)N(C(=O)[C@@H](NC(=O)[C@H](C)NC)C(C)(C)C)C1)C(C)(C)C` [Compound 1007], the IC50 lay in the range of 0.05 to 0.1 µM in test [1] and 2 to 12 µM in test [2] (setting [6]).
Consider `CN[C@@H](C)C(=O)N[C@H](C(=O)N1C[C@@H]2C[C@H]1C(=O)N[C@@H](Cc1ccccc1)C(=O)N(C)[C@H](C(=O)O)Cc1ccc(cc1)OCc1cn(nn1)[C@H]1C[C@@H](C(=O)N[C@@H](Cc3ccccc3)C(=O)N(C)[C@H](C(=O)O)Cc3ccc(cc3)OCc3cn2nn3)N(C(=O)[C@@H](NC(=O)[C@H](C)NC)C(C)C)C1)C(C)C` [Compound 133], for which the IC50 is less than 0.05 µM in test [1] and less than 2 µM in test [2] (setting [5]).
For `CN[C@@H](C)C(=O)N[C@@H](C)C(=O)N1C[C@@H]2C[C@H]1C(=O)N[C@@H](Cc1ccccc1)C(=O)N[C@H](C(=O)O)Cc1ccc(cc1)OCc1cn(nn1)[C@H]1C[C@@H](C(=O)N[C@@H](Cc3ccccc3)C(=O)N[C@H](C(=O)O)Cc3ccc(cc3)OCc3cn2nn3)N(C(=O)[C@H](C)NC(=O)[C@H](C)NC)C1` [Compound 118] the same measures were 0.05 to 0.1 µM and more than 12 µM.
For `CN[C@@H](C)C(=O)NCC1(C(=O)N2C[C@@H]3C[C@H]2C(=O)N[C@@H](Cc2ccccc2)C(=O)N[C@H](C(=O)O)Cc2ccc(cc2)OCc2cn(nn2)[C@H]2C[C@@H](C(=O)N[C@@H](Cc4ccccc4)C(=O)N[C@H](C(=O)O)Cc4ccc(cc4)OCc4cn3nn4)N(C(=O)C3(CNC(=O)[C@H](C)NC)CC3)C2)CC1` [Compound 121], the IC50 in test [1] (XIAP BIR3, FPA, Table 2, read-out: BIR3 IC50) was more than 0.1 µM; in test [2] (setting [5]), more than 12 µM.

These data come from patent US20140309265A1, “MACROCYCLIC COMPOUNDS FOR INHIBITION OF INHIBITORS OF APOPTOSIS” (Ensemble Therapeutics, priority 2011, published 2014).
